Measurements taken from US3962282A, “Juvenile hormone mimics” (priority 1974, dated 1976).

What was measured:
[1] = test system: Housefly (Musca domestica); test: housefly rearing diet test, percent adult emergence; type: in vivo
Method: Test compounds were mixed with the rearing diet of houseflys at various levels. The prepared diet was then placed in an 8 oz. drinking cup. Three cups were prepared for each treatment level and three control cups. Housefly eggs (Musca domestica) were placed in each cup and they were maintained at 28°C. for 1 week. Fifty pupae were then removed from each cup and placed in a petri dish. After the control pupae had emerged into adults, the percent emergence in each dish was recorded. The test compounds used were 7,8-epoxy-4-ethyl-8-methyl-1-(3,4-methylenedioxyphenyl)-3-decene, 4,8-dimetyl-1-(3,4-methylenedioxyphenyl)-2,6-nonadiene and 2,6-dichloro-2,6-dimethyl-9-(3,4-methylenedioxyphenyl)nonane.

milkweed bug = test: topical application to milkweed bug, fourth nymphal stage, maturation inhibition; type: in vivo; settings: rating scale 0-3
Procedure, shortened: (§1)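 Compounds applied topically, 1 μL acetone solution at 10%, 1% or 0.5%, to ten specimens per insect per concentration, alongside acetone and untreated controls; scored after about 8–10 days. Juvenile/adult characteristics rated 0–3 (Tenebrio 0–4), ≥2 meaning unable to reproduce; unreported specimens died during metamorphosis.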

Mexican bean beetle = test: topical application to Mexican bean beetle, fourth larval stage, maturation inhibition; type: in vivo
Procedure, shortened: as §1

Tenebrio molitor pupae = test: topical application to Tenebrio molitor pupae, maturation inhibition; type: in vivo
Procedure, shortened: as §1

wax moth = test: topical application to wax moth, fifth larval stage, maturation inhibition; type: in vivo
Procedure, shortened: as §1

housefly larvae = test: topical application to housefly larvae; type: in vivo, Musca domestica
Method: The compounds were applied in acetone solution at concentrations of 10 percent, 1 percent and 0.5 percent. One microliter of the acetone solution was applied to each test specimen. Ten test specimens were employed for each insect at each concentration and compared to ten acetone controls and ten zero controls. Approximately eight to ten days were required before results could be ascertained.
A number of compounds were tested against housefly larvae by topical application in an acetone solution using the method described above for the primary test against Tenebrio, milkweed bug, wax moth, and Mexican bean bettel. The results with the first compound are reported on a scale of 0 to 3 with 0 indicating a normal adult, 1 indicating an adult with deformed wings, 2 indicating a partially emerged adult, and 3 indicating no evidence of emergence. The results for the other compounds are reported onn a scale of 0 to 2 with 0 indicating a normal adult, 1 indicating a partially emerged adult and 2 indicating no evidence of emergence.

[2] = 10% in acetone, 1 microliter topical, rating scale 0 (no effect) to 3 (maximum)

**Q.** Which “percent adult emergence, Cup 1” value ([1]; 0.1 ppm in diet) does the source give for `CC(C)(Cl)CCCC(C)(Cl)CCCc1ccc2c(c1)OCO2` (stereo not drawn) [2,6-dichloro-2,6-dimethyl-9-(3,4-methylenedioxyphenyl)nonane] here?
**A.** 100%

**Q.** What about the “percent adult emergence, Cup 2” value ([1]; 0.1 ppm in diet) of the same compound?
**A.** 100%

**Q.** What about the “percent adult emergence, Cup 3” value ([1]; 0.1 ppm in diet) of the same compound?
**A.** 100%

**Q.** And the “percent adult emergence, Cup 1” value ([1]; 1 ppm in diet)?
**A.** 100%

**Q.** And the “percent adult emergence, Cup 2” value ([1]; 1 ppm in diet)?
**A.** 100%

**Q.** And the “percent adult emergence, Cup 3” value ([1]; 1 ppm in diet)?
**A.** 100%

**Q.** What about the “percent adult emergence, Cup 1” value ([1]; 10 ppm in diet) of the same compound?
**A.** 100%

**Q.** What about the “percent adult emergence, Cup 2” value ([1]; 10 ppm in diet) of the same compound?
**A.** 90%

**Q.** What about the “percent adult emergence, Cup 3” value ([1]; 10 ppm in diet) of the same compound?
**A.** 90%

**Q.** What about the control ([1]; 100 ppm) of the same compound?
**A.** 100%

**Q.** What about the “percent adult emergence, Cup 1” value ([1]; 100 ppm in diet) of the same compound?
**A.** 0%

**Q.** What about the “percent adult emergence, Cup 2” value ([1]; 100 ppm in diet) of the same compound?
**A.** 0%

**Q.** And the “percent adult emergence, Cup 3” value ([1]; 100 ppm in diet)?
**A.** 0%

**Q.** And the “number of specimens in rating 3” value (milkweed bug; 0.5%)?
**A.** 8 specimens

**Q.** What about the “number of specimens in rating 3” value (milkweed bug; 1%) of the same compound?
**A.** 10 specimens

**Q.** And the “number of specimens in rating 3” value (milkweed bug; 10%)?
**A.** 5 specimens

**Q.** And the “number of specimens in rating 0” value (Mexican bean beetle; 0.5%, rating scale 0-3)?
**A.** 8 specimens

**Q.** And the “number of specimens in rating 1” value (Mexican bean beetle; 0.5%, rating scale 0-3)?
**A.** 2 specimens

**Q.** What about the “number of specimens in rating 0” value (Mexican bean beetle; 1%, rating scale 0-3) of the same compound?
**A.** 5 specimens

**Q.** What about the “number of specimens in rating 1” value (Mexican bean beetle; 1%, rating scale 0-3) of the same compound?
**A.** 3 specimens

**Q.** And the “number of specimens in rating 2” value (Mexican bean beetle; 1%, rating scale 0-3)?
**A.** 2 specimens

**Q.** What about the “number of specimens in rating 1” value (Mexican bean beetle; 10%, rating scale 0-3) of the same compound?
**A.** 1 specimens

**Q.** And the “number of specimens in rating 2” value (Mexican bean beetle; 10%, rating scale 0-3)?
**A.** 4 specimens

**Q.** And the “number of specimens in rating 3” value (Mexican bean beetle; 10%, rating scale 0-3)?
**A.** 5 specimens

**Q.** What about the “number of specimens in rating 1” value (Tenebrio molitor pupae; 0.5%, rating scale 0-4) of the same compound?
**A.** 2 specimens

**Q.** What about the “number of specimens in rating 2” value (Tenebrio molitor pupae; 0.5%, rating scale 0-4) of the same compound?
**A.** 8 specimens

**Q.** And the “number of specimens in rating 2” value (Tenebrio molitor pupae; 1%, rating scale 0-4)?
**A.** 10 specimens

**Q.** And the “number of specimens in rating 2” value (Tenebrio molitor pupae; 10%, rating scale 0-4)?
**A.** 1 specimens

**Q.** What about the “number of specimens in rating 3” value (Tenebrio molitor pupae; 10%, rating scale 0-4) of the same compound?
**A.** 9 specimens

**Q.** And the “number of specimens in rating 0” value (wax moth; 0.5%, rating scale 0-3)?
**A.** 10 specimens

**Q.** And the “number of specimens in rating 0” value (wax moth; 1%, rating scale 0-3)?
**A.** 10 specimens

**Q.** And the “number of specimens in rating 0” value (wax moth; [2])?
**A.** 10 specimens

**Q.** What about the “number in rating 0 (normal adult)” value (housefly larvae; 0.5%, scale 0-2) of the same compound?
**A.** 2

**Q.** What about the “number in rating 2 (no evidence of emergence)” value (housefly larvae; 0.5%, scale 0-2) of the same compound?
**A.** 8

**Q.** And the “number in rating 0 (normal adult)” value (housefly larvae; 1%, scale 0-2)?
**A.** 1

**Q.** And the “number in rating 2 (no evidence of emergence)” value (housefly larvae; 1%, scale 0-2)?
**A.** 9

**Q.** What about the “number in rating 2 (no evidence of emergence)” value (housefly larvae; 10%, scale 0-2) of the same compound?
**A.** 10

**Q.** For `CC(C)=CCC/C(C)=C/CCc1ccc(Cl)c(Cl)c1` [trans-2,6-dimethyl-9-(3,4-dichlorophenyl)-2,6-nonadiene], which “number of specimens in rating 3” value (milkweed bug; 0.5%) is on record?
**A.** 10 specimens

**Q.** What about the “number of specimens in rating 3” value (milkweed bug; 1%) of the same compound?
**A.** 10 specimens

**Q.** And the “number of specimens in rating 3” value (milkweed bug; 10%)?
**A.** 10 specimens

**Q.** And the “number of specimens in rating 0” value (Mexican bean beetle; 0.5%, rating scale 0-3)?
**A.** 10 specimens

**Q.** And the “number of specimens in rating 0” value (Mexican bean beetle; 1%, rating scale 0-3)?
**A.** 10 specimens

**Q.** What about the “number of specimens in rating 0” value (Mexican bean beetle; [2]) of the same compound?
**A.** 6 specimens

**Q.** And the “number of specimens in rating 1” value (Mexican bean beetle; 10%, rating scale 0-3)?
**A.** 1 specimens

**Q.** What about the “number of specimens in rating 2” value (Mexican bean beetle; 10%, rating scale 0-3) of the same compound?
**A.** 1 specimens

**Q.** What about the “number of specimens in rating 3” value (Mexican bean beetle; 10%, rating scale 0-3) of the same compound?
**A.** 2 specimens

**Q.** What about the “number of specimens in rating 0” value (Tenebrio molitor pupae; 0.5%, rating scale 0-4) of the same compound?
**A.** 10 specimens

**Q.** And the “number of specimens in rating 0” value (Tenebrio molitor pupae; 1%, rating scale 0-4)?
**A.** 10 specimens

**Q.** What about the “number of specimens in rating 0” value (Tenebrio molitor pupae; 10% in acetone, 1 microliter topical, rating scale 0 (no effect) to 4 (maximum)) of the same compound?
**A.** 10 specimens

**Q.** What about the “number of specimens in rating 0” value (wax moth; 0.5%, rating scale 0-3) of the same compound?
**A.** 10 specimens

**Q.** What about the “number of specimens in rating 0” value (wax moth; 1%, rating scale 0-3) of the same compound?
**A.** 10 specimens

**Q.** What about the “number of specimens in rating 0” value (wax moth; [2]) of the same compound?
**A.** 10 specimens

**Q.** And the “number in rating 0 (normal adult)” value (housefly larvae; 0.5%, scale 0-3)?
**A.** 3

**Q.** What about the “number in rating 2 (partially emerged adult)” value (housefly larvae; 0.5%, scale 0-3) of the same compound?
**A.** 1

**Q.** What about the “number in rating 3 (no evidence of emergence)” value (housefly larvae; 0.5%, scale 0-3) of the same compound?
**A.** 6

**Q.** And the “number in rating 0 (normal adult)” value (housefly larvae; 1%, scale 0-3)?
**A.** 8

**Q.** What about the “number in rating 3 (no evidence of emergence)” value (housefly larvae; 1%, scale 0-3) of the same compound?
**A.** 2

**Q.** What about the “number in rating 0 (normal adult)” value (housefly larvae; 10%, scale 0-3) of the same compound?
**A.** 5

**Q.** What about the “number in rating 3 (no evidence of emergence)” value (housefly larvae; 10%, scale 0-3) of the same compound?
**A.** 5

**Q.** What does the source list for `CC(C)=CCC/C(C)=C/CCc1ccc(Cl)cc1` [trans-2,6-dimethyl-9-(4-chlorophenyl)-2,6-nonadiene]?
**A.** number of specimens in rating 3 (milkweed bug; 0.5%): 10 specimens; number of specimens in rating 3 (milkweed bug; 1%): 10 specimens; number of specimens in rating 3 (milkweed bug; 10%): 10 specimens; number of specimens in rating 3 (Mexican bean beetle; 0.5%, rating scale 0-3): 10 specimens; number of specimens in rating 3 (Mexican bean beetle; 1%, rating scale 0-3): 10 specimens; number of specimens in rating 3 (Mexican bean beetle; 10%, rating scale 0-3): 10 specimens; number of specimens in rating 0 (Tenebrio molitor pupae; 0.5%, rating scale 0-4): 10 specimens; number of specimens in rating 0 (Tenebrio molitor pupae; 1%, rating scale 0-4): 4 specimens; number of specimens in rating 1 (Tenebrio molitor pupae; 1%, rating scale 0-4): 3 specimens; number of specimens in rating 3 (Tenebrio molitor pupae; 1%, rating scale 0-4): 3 specimens; number of specimens in rating 4 (Tenebrio molitor pupae; 10%, rating scale 0-4): 10 specimens; number of specimens in rating 0 (wax moth; 0.5%, rating scale 0-3): 10 specimens; number of specimens in rating 0 (wax moth; 1%, rating scale 0-3): 9 specimens; number of specimens in rating 2 (wax moth; 1%, rating scale 0-3): 1 specimens; number of specimens in rating 0 (wax moth; [2]): 6 specimens; number of specimens in rating 1 (wax moth; 10%, rating scale 0-3): 1 specimens; number of specimens in rating 2 (wax moth; 10%, rating scale 0-3): 3 specimens; number in rating 0 (normal adult) (housefly larvae; 0.5%, scale 0-2): 4; number in rating 2 (no evidence of emergence) (housefly larvae; 0.5%, scale 0-2): 6; number in rating 0 (normal adult) (housefly larvae; 1%, scale 0-2): 3; number in rating 1 (partially emerged adult) (housefly larvae; 1%, scale 0-2): 3; number in rating 2 (no evidence of emergence) (housefly larvae; 1%, scale 0-2): 4; number in rating 0 (normal adult) (housefly larvae; 10%, scale 0-2): 3; number in rating 1 (partially emerged adult) (housefly larvae; 10%, scale 0-2): 1; number in rating 2 (no evidence of emergence) (housefly larvae; 10%, scale 0-2): 5
